# Results reported in patent US20080200467A1, “SOLUBLE EPOXIDE HYDROLASE INHIBITORS” (Arete Therapeutics, Inc., priority 2006, published 2008).
# System: soluble epoxide hydrolase (sEH)
# Experiment: Fluorescent Assay for Mouse and Human Soluble Epoxide Hydrolase (CMNPC substrate)
# Type: biochemical
# Settings: Concentration 500 nM
# Text: Fluorescent Assay for Mouse and Human Soluble Epoxide Hydrolase Recombinant mouse sEH (MsEH) and human sEH (HsEH) were produced in a baculovirus expression system as previously reported. Grant et al., J. Biol. Chem., 268:17628-17633 (1993); Beetham et al., Arch. Biochem. Biophys., 305:197-201 (1993). The expressed proteins were purified from cell lysate by affinity chromatography. Wixtrom et al., Anal. Biochem., 169:71-80 (1988). Protein concentration was quantified using the Pierce BCA assay using bovine serum albumin as the calibrating standard. The preparations were at least 97% pure as judged by SDS-PAGE and scanning densitometry. They contained no detectable esterase or glutathione transferase activity which can interfere with the assay. The assay was also evaluated with similar results in crude cell lysates or homogenate of tissues. The IC50s for each inhibitor were according to the following procedure: [drawing 218] […] Jones P. D. et. al.; Analytical Biochemistry 2005; 343: pp. 66-75) Bis/Tris HCl 25 mM pH 7.0 containing 0.1 mg/mL of BSA (buffer […] at 0.25 mM in DMSO. Mother solution of enzyme in buffer A (Mouse sEH at 6 μg/mL and Human sEH at 5 μg/mL). Inhibitor dissolved in DMSO at the appropriate concentration. In a black 96 well plate, fill all the wells with 150 μL of buffer A. Add 2 μL of DMSO in well A2 and A3, and then add 2 μL of inhibitor solution in A1 and A4 through A12. Add 150 μL of buffer A in row A, then mix several time and transfer 150 μL to row B. Repeat this operation up to row H. The 150 μL removed from row H is discarded. Add 20 μL of buffer A in column 1 and 2, then add 20 μL of enzyme solution to column 3 to 12. Incubate the plate for 5 minutes in the plate reader at 30° C. During incubation prepare the working solution of substrate by mixing 3.68 mL of buffer A (4×0.920 mL) with 266 μL (2×133 μL) of substrate solution). At t=0, add 30 μL of working substrate solution with multi-channel pipette labeled “Briggs 303” and start the reading ([S]final: 5 μM). Read with ex: 330 nm (20 nm) and em: 465 nm (20 nm) every 30 second for 10 minutes. The velocities are used to analyze and calculate the IC50s. Tables 4-6 show the activity of compounds when tested with the assay at 50, 500, 5000, 50000, and 500000 nM.
row,% Inhibition,SMILES
1,65%,"O=C(Nc1cccc(OCCCN2CCOCC2)c1)C(=O)c1ccc(C(F)(F)F)cc1 [Compound 1, N-[3-(3-Morpholin-4-yl-propoxy)-phenyl]-2-oxo-2-(4-trifluoromethyl-phenyl)-acetamide]"
2,80%,"Cc1ccc(S(=O)(=O)N2CCC(NC(=O)C(O)C34CC5CC(CC(C5)C3)C4)CC2)cc1 (centres unmarked) [Compound 124, 2-Adamantan-1-yl-2-hydroxy-N-[1-(toluene-4-sulfonyl)-piperidin-4-yl]-acetamide]"
3,79%,"Cc1ccc(S(=O)(=O)N2CCC(NC(=O)C(O)CCC34CC5CC(CC(C5)C3)C4)CC2)cc1 (centres unmarked) [Compound 138, 4-Adamantan-1-yl-2-hydroxy-N-(1-tosylpiperidin-4-yl)butanamide]"
4,89%,"Cc1ccc(S(=O)(=O)N2CCC(NC(=O)C(O)CC34CC5CC(CC(C5)C3)C4)CC2)cc1 (centres unmarked) [Compound 128, 3-Adamantan-1-yl-2-hydroxy-N-[1-(toluene-4-sulfonyl)-piperidin-4-yl]-propionamide]"

# Same assay, conditions: Concentration 5000 nM
row,% Inhibition,SMILES
1,89%,"Cc1ccc(S(=O)(=O)N2CCC(NC(=O)C(O)CC3CCCCC3)CC2)cc1 (centres unmarked) [Compound 135, 3-Cyclohexyl-2-hydroxy-N-(1-tosylpiperidin-4-yl)propanamide]"
2,87%,O=C(CC12CC3CC(CC(C3)C1)C2)C(=O)NCCc1ccc(OCc2ccccc2)cc1 [Compound 24]
3,91%,"O=C(NCC12CC3CC(CC(C3)C1)C2)C(O)c1ccc(C(F)(F)F)cc1 (centres unmarked) [Compound 121, N-Adamantan-1-ylmethyl-2-hydroxy-2-(4-trifluoromethyl-phenyl)-acetamide]"
4,73%,"O=C(NCc1ccc(OCc2ccccc2)cc1)C(O)CCC12CC3CC(CC(C3)C1)C2 (centres unmarked) [Compound 146, N-(4-(Benzyloxy)benzyl)-4-adamantyl-2-hydroxybutanamide]"
5,66%,"O=C(Nc1cccc(OCc2ccccc2)c1)C(O)C1CCCCC1 (centres unmarked) [Compound 113, N-(3-Benzyloxy-phenyl)-2-cyclohexyl-2-hydroxy-acetamide]"
6,99%,"Cc1ccc(S(=O)(=O)N2CCC(NC(=O)C(=O)CC34CC5CC(CC(C5)C3)C4)CC2)cc1 [Compound 19, 3-Adamantan-1-yl-2-oxo-N-[1-(toluene-4-sulfonyl)-piperidin-4-yl]-propionamide]"
7,64%,"O=C(CC12CC3CC(CC(C3)C1)C2)C(=O)Nc1ccc(OCc2ccccc2)cc1 [Compound 17, 3-Adamantan-1-yl-N-(4-benzyloxy-phenyl)-2-oxo-propionamide]"
8,99%,"O=C(Nc1ccc(OCc2ccccc2)cc1)C(O)CCC12CC3CC(CC(C3)C1)C2 (centres unmarked) [Compound 143, N-(4-(Benzyloxy)phenyl)-4-adamantan-1-yl-2-hydroxybutanamide]"
9,71%,"O=C(Nc1cccc(OCc2ccccc2)c1)C(=O)c1ccc(C(F)(F)F)cc1 [Compound 5, N-(3-Benzyloxy-phenyl)-2-oxo-2-(4-trifluoromethyl-phenyl)-acetamide]"
10,85%,"O=C(Nc1ccc(-n2ccnc2)cc1)C(=O)c1ccc(C(F)(F)F)cc1 [Compound 8, N-(4-Imidazol-1-yl-phenyl)-2-oxo-2-(4-trifluoromethyl-phenyl)-acetamide]"
11,86%,"O=C(CC12CC3CC(CC(C3)C1)C2)C(=O)Nc1cccc(OCc2ccccc2)c1 [Compound 15, 3-Adamantan-1-yl-N-(3-benzyloxy-phenyl)-2-oxo-propionamide]"
12,91%,"O=C(NC12CC3CC(CC(C3)C1)C2)C(O)Cc1ccc(OCc2ccccc2)cc1 (centres unmarked) [Compound 107, N-Adamantan-1-yl-3-(4-benzyloxy-phenyl)-2-hydroxy-propionamide]"
13,95%,"O=C(Nc1ccc(OCc2ccccc2)cc1)C(O)C12CC3CC(CC(C3)C1)C2 (centres unmarked) [Compound 118, 2-Adamantan-1-yl-N-(4-benzyloxy-phenyl)-2-hydroxy-acetamide]"
14,59%,"O=C(O)CCCCCCCCCCCNC(=O)C(O)Cc1ccc(C(F)(F)F)cc1 (centres unmarked) [Compound 164, 12-(2-Hydroxy-3-(4-(trifluoromethyl)phenyl)propanamido)dodecanoicacid]"
15,95%,"O=C(Nc1cccc(OCCCN2CCOCC2)c1)C(O)c1ccc(C(F)(F)F)cc1 (centres unmarked) [Compound 101, 2-Hydroxy-N-[3-(3-morpholin-4-yl-propoxy)-phenyl]-2-(4-trifluoromethyl-phenyl)-acetamide]"
16,75%,"O=C(Cc1ccc(OCc2ccccc2)cc1)C(=O)NC12CC3CC(CC(C3)C1)C2 [Compound 7, N-Adamantan-1-yl-3-(4-benzyloxy-phenyl)-2-oxo-propionamide]"
17,90%,"O=C(O)CCCCCCCCCCCNC(=O)C(O)CC12CC3CC(CC(C3)C1)C2 (centres unmarked) [Compound 161, 12-(3-Adamantan-1-yl-2-hydroxypropanamido)dodecanoic acid]"
18,79%,"COc1ccc(C(O)C(=O)NCC23CC4CC(CC(C4)C2)C3)cc1 (centres unmarked) [Compound 120, N-Adamantan-1-ylmethyl-2-hydroxy-2-(4-methoxy-phenyl)-acetamide]"
19,98%,O=C(Nc1cccc(OCc2ccccc2)c1)C(O)CCc1ccc(C(F)(F)F)cc1 (centres unmarked) [Compound 131]
20,71%,"O=C(Cc1ccc(OCc2ccccc2)cc1)C(=O)NCC12CC3CC(CC(C3)C1)C2 [Compound 6, N-Adamantan-1-ylmethyl-3-(4-benzyloxy-phenyl)-2-oxo-propionamide]"
21,93%,O=C(Nc1ccc(-n2ccnc2)cc1)C(=O)C12CC3CC(CC(C3)C1)C2 [Compound 21]
22,95%,"O=C(NCCc1ccc(F)cc1)C(O)CCC12CC3CC(CC(C3)C1)C2 (centres unmarked) [Compound 145, 4-Adamantan-1-yl-N-(4-fluorophenethyl)-2-hydroxybutanamide]"
23,83%,"Cc1ccc(S(=O)(=O)N2CCC(NC(=O)C(O)CCc3ccc(C(F)(F)F)cc3)CC2)cc1 (centres unmarked) [Compound 136, 2-Hydroxy-N-(1-tosylpiperidin-4-yl)-4-(4-(trifluoromethyl)phenyl)butanamide]"
24,93%,"O=C(NCCc1ccc(OCc2ccccc2)cc1)C(O)CC12CC3CC(CC(C3)C1)C2 (centres unmarked) [Compound 147, N-(4-(Benzyloxy)phenethyl)-3-adamantan-1-yl-2-hydroxypropanamide]"
25,98%,"O=C(NCc1ccc(OCc2ccccc2)cc1)C(O)CC12CC3CC(CC(C3)C1)C2 (centres unmarked) [Compound 125, 3-Adamantan-1-yl-N-(4-benzyloxy-benzyl)-2-hydroxy-propionamide]"
26,76%,"O=C(NC1CCN(S(=O)(=O)c2ccc(Cl)cc2)CC1)C(O)CC12CC3CC(CC(C3)C1)C2 (centres unmarked) [Compound 148, N-(1-(4-Chlorophenylsulfonyl)piperidin-4-yl)-3-adamantan-1-yl-2-hydroxypropanamide]"

# Same assay, conditions: Concentration 50000 nM
row,% Inhibition,SMILES
1,80%,"Cc1ccc(S(=O)(=O)N2CCC(NC(=O)C(O)c3ccc(C(F)(F)F)cc3)CC2)cc1 (centres unmarked) [Compound 108, 2-Hydroxy-N-[1-(toluene-4-sulfonyl)-piperidin-4-yl]-2-(4-trifluoromethyl-phenyl)-acetamide]"
2,74%,"CCCC(=O)N1CCC(NC(=O)C(O)c2ccc(C(F)(F)F)cc2)CC1 (centres unmarked) [Compound 114, N-(1-Butyryl-piperidin-4-yl)-2-hydroxy-2-(4-trifluoromethyl-phenyl)-acetamide]"
3,99%,"O=C(Nc1cccc(OCc2ccccc2)c1)C(=O)C1CCCCC1 [Compound 12, N-(3-Benzyloxy-phenyl)-2-cyclohexyl-2-oxo-acetamide]"
4,87%,"COC1CCC(NC(=O)C(=O)c2ccc(C(F)(F)F)cc2)CC1 (centres unmarked) [Compound 4, N-(4-Methoxy-cyclohexyl)-2-oxo-2-(4-trifluoromethyl-phenyl)-acetamide]"
5,84%,"Cc1ccc(S(=O)(=O)N2CCC(NC(=O)C(O)Cc3ccc(C(F)(F)F)cc3)CC2)cc1 (centres unmarked) [Compound 142, 2-Hydroxy-N-(1-tosylpiperidin-4-yl)-3-(4-(trifluoromethyl)phenyl)propanamide]"
6,81%,"O=C(Nc1ccc(OCc2ccccc2)cc1)C(O)CC12CC3CC(CC(C3)C1)C2 (centres unmarked) [Compound 117, 3-Adamantan-1-yl-N-(4-benzyloxy-phenyl)-2-hydroxy-propionamide]"
7,65%,"O=C(Nc1ccc(OCc2ccccc2)cc1)C(O)CC1CCCCC1 (centres unmarked) [Compound 132, N-(4-(Benzyloxy)phenyl)-3-cyclohexyl-2-hydroxypropanamide]"
8,79%,"COC1CCC(NC(=O)C(O)c2ccc(C(F)(F)F)cc2)CC1 (centres unmarked) [Compound 104, 2-Hydroxy-N-(4-methoxy-cyclohexyl)-2-(4-trifluoromethyl-phenyl)-acetamide]"
